Source: patent publication US9915659B2, “Systems and methods for prognosticating brain tumors” (Cedars-Sinai Medical Center, priority 2013, dated 2018)
“Also recorded” adds a separate entry of the source. Blank lines part the entries; values can stand above or below the molecule they belong to.

Key:
GBM patients [1] = assay: Survival of temozolomide-treated GBM patients stratified by ZEB1 copy number and MGMT expression; assay type: in vivo, human; settings: temozolomide treatment
From the text: Given our observations that ZEB1 and CD133 expression imparts GSC resistance to differentiation and impacts patient survival, we considered if ZEB1 loss would impact response to therapy. To do this, we explored the role of 06-methylguanine-DNA methyltransferase (MGMT) which removes DNA alkylating agents and therefore hinders the effectiveness of chemotherapeutic alkylating agents including temozolomide.^28 The MGMT promoter region has been shown when hypermethylated to suppress MGMT activity conferring chemosensitivity resulting in favorable prognosis compared to the hypomethylated state of MGMT which results in poor patient outcomes. MGMT expression is inversely correlated to its methylated state. We sought to determine the effect of ZEB1 loss on the clinical impact of hypermethylation of MGMT in the presence of temozolomide.
MGMT expression is inversely correlated to its methylated state. We sought to determine the effect of ZEB1 deletion on the clinical impact of hypermethylation of MGMT in the presence of temozolomide.

GBM patients [2] = settings: two recent phase III trials; cited from earlier work
glioblastoma patients = assay: Overall survival of 403 glioblastoma patients treated with or without bevacizumab, stratified by ZEB1 expression; assay type: in vivo, human; settings: general patient population
From the text: Studies reported OS results by ZEB1 status and permutations of ZEB1/IDH1 status via (1) Kaplan-Meier curves, (2) hazard ratios (HRs) and corresponding 95% confidence intervals, (3) c-statistic. We translated all reports of survival outcomes to the number of events and the survival time. Patients not experiencing event were censored at the last follow-up date.
Data are presented as frequency (percentage, %) for categorical variables and median (IQR, interquartile range) for continuous variables. ZEB1 and IDH1 mRNA values were log base 2 transformed. Univariate associations between variables were examined with Wilcoxon rank-sum test, chi-square test, or Spearman rank correlation, where appropriate. A Cox proportional hazards regression model was employed in univariate and multivariable analyses to identify variables that predict OS. The proportional hazards assumption was evaluated with Schoenfeld residuals and a Kolmogorov-type supremum test. Hazard ratios (HRs) were expressed as an increase from the 25th to 75th percentile in continuous variables. Multivariable analysis was further carried out with the Cox proportional hazards model to examine whether an improvement in predictive discriminatory power was obtained when ZEB1 was added to the model containing the known marker, IDH1 and age. […]

GBM patients [3] = assay: Kaplan-Meier overall survival of GBM patients treated with or without bevacizumab, stratified by ZEB1 copy number (study set J / data set of 78 GBM patients); assay type: in vivo, human
From the text: Data are expressed as mean±s.e.m. Kaplan-Meier curves and p values were generated using Prism 6.0v. Two-tailed student's t-test, were used. A P value of *<0.05 was considered significant.

GSCs [4] = assay: Neurosphere formation and limiting dilution sphere-forming assay; assay type: cell-based, human; settings: IFN-γ treated GSCs
Protocol: (§1) Neural Basal A media (Invitrogen) supplemented with EGF and bFGF (R&D Systems) were used to culture primary patient derived glioma stem cells (GSCs) which were dissociated into single cells sorted for CD133 expression and plated onto 24 well plates with various seeding densities (4-100 cells/well). GSCs were incubated at 37° C. at 5% CO2 for 2 to 3 weeks. GSCs were then quantified for neurosphere formation.
as §1, with “GCSCs” for “glioma stem cells (GSCs)”, “GCSCs” for “GSCs”

LIF promoter = assay: LIF luciferase reporter assay in GCSCs; assay type: cell-based, human; settings: IFN-γ 200 ng/mL 72 hrs; all constructs except −109/+10 region
Protocol: (§2) To measure transcriptional activity of LIF, 0827 GSCs (1×10^4 cells per transfection, three replicates per condition) were transiently transfected with one of several deletion LIF luciferase reporter plasmids (1 ug; Switchgear) with the use of X-treme gene HP DNA (Roche), seeded in six-well plates (1×10^4 cell per well), and incubated for 48 hrs. IFN-γ cytokine (200 ng/mL) was added to the cultures and the cells were incubated for 72 hrs. The cells were harvested and the luciferase activity was measured with the use of a GloMax 20/20 Luminometer (Promega, Madison, Wis.). These experiments were carried out in triplicate on three different occasions.
as §2, with “GCSCs” for “GSCs”, “IFN-6” for “IFN-γ”, “occasions. […]” for “occasions.”

GCSCs = assay: ZEB1 expression by qRT-PCR in GCSCs treated with IFN-γ; assay type: cell-based, human; settings: IFN-γ 3 days (200 ng/ml)
Protocol: FIGS. 15A-15J depict, in accordance with various embodiments of the present invention, effect of IFN-γ on LIF and ZEB1 activation in patient derived glioma cancer stem cells (GCSCs). (FIG. 15A) GCSCs were treated with IFN-γ for 3-days and ZEB1 expression levels were determined by qRT-PCR. (FIG. 15B) The percentage of CD133^+ GCSCs in the presence and absence of IFN-γ were determined by flow cytometry. GCSCs were incubated with IFN-γ for 7-days. (FIG. 15C) The effects of IFN-γ on secondary neurosphere formation. […] (FIG. 15E) Spearman correlation between LIF and ZEB1 GBM patients (n=28), rank correlation (R) and two-tailed significance is shown. (FIG. 15F) ZEB1 binding motifs within the LIF promoter (CAGGTG, ***P<0.0001 and CAGGTA,***P<0.0001). […]
To generate GSCs that stably express short hairpin RNAs (shRNAs) that target ZEB1, we co-transfected shRNA (Origene, Rockville Md.),—that target ZEB1 into our 0827 or 0323 GSCs, with a VSV-G expression plasmid (Clontech) into the GP2-293 packaging cell line (Clontech) according to the manufacturer's instructions. […] Cells that were resistant to puromycin were characterized for ZEB1 expression by immunoblotting and subsequent cell proliferation using 5-ethynyl-2′-deoxyuridine (EdU) Click-IT assay (Life Technologies) using fluorescence activated cell sorting (FACs) analysis according to the manufacturer's instructions. […]

GSCs [5] = assay: CD133 staining of GSCs by flow cytometry (FACs); assay type: cell-based, human; settings: IFN-γ 7 days (100 ng/ml)
Protocol: (§3) GSCs were washed with 1× PBS buffer 3 times and resuspended in 1× PBS. GSCs were fixed in 4% formaldehyde for 15 min at room temperature. Cells were washed with 1× PBS buffer and were incubated in 0.1% Triton X-100 for 5 min, washed and then incubated with FcR Blocker (Mitenyi Biotech) followed by incubation with CD133 antibody conjugated to Phycoerythrin (PE) or although not shown an isotype control was also performed (Mitenyi Biotech), protected from light for 1 hr at room temperature. Cells were washed and analyzed on a FACscan flow cytometer (BD Biosciences, San Jose, Calif.).
as §3, with “performed (Miltenyi” for “performed (Mitenyi”, “1 […]” for “1 hr”, “(BD Biosciences).” for “(BD Biosciences, San Jose, Calif.).”
GCSCs were washed with 1× PBS buffer 3 times and resuspended in 1× PBS. GCSCs were fixed in 4% formaldehyde for 15 min at room temperature. […] Cells were washed and analyzed on a FACscan flow cytometer (BD Biosciences). […]

Molecule: Cn1nnc2c(C(N)=O)ncn2c1=O [temozolomide]
hazard ratio, patient survival, ZEB1 deletion vs wildtype ZEB1 (GBM patients [1]; high MGMT expression (n=121)): 1.59
hazard ratio, patient survival, ZEB1 deletion vs wildtype ZEB1 (GBM patients [1]; low MGMT expression (n=115)): 1.56

Molecule: bevacizumab
survival advantage in GBM patients (GBM patients [2]): no survival advantage
effect on patient survival (glioblastoma patients): did little to alter patient survival
effect on patient survival (GBM patients [3]; ZEB1 deleted patients): significant survival benefit; also recorded: increase in survival
effect on patient survival (GBM patients [3]; ZEB1 intact / ZEB1 wt patients): no change in survival; also recorded: no effect
effect on patient survival (GBM patients [3]; general patient population, independent data set of 78 GBM patients): did little to alter patient survival

LIF transcriptional activity (luciferase deletion constructs) (LIF promoter): suppressive effect
B1: IFN-γ: proinflammatory cytokine interferon gamma (eBioscience) (protein, UniProt P01579 24-161, looked up)
Interferon gamma: QDPYVKEAENLKKYFNAGHSDVADNGTLFLGILKNWKEESDRKIMQSQIVSFYFKLFKNFKDDQSIQKSVETIKEDMNVKFFNSNKKKRDDFEKLTNYSVTDLNVQRKAIHELIQVMAELSPAAKTGKRKRSQMLFRG
secondary neurosphere formation (GSCs [4]): decreased
self-renewal capabilities vs untreated (GSCs [4]; limiting dilution): decreased
ZEB1 induction (expression) vs untreated (GCSCs): significant increase; also recorded: induced
CD133 expression (GSCs [5]): decreased
